From patent EP0504290B1, “INHIBITORS OF PNEUMOCYSTIS CARINII DIHYDROFOLATE REDUCTASE” (CHIRON CORPORATION, priority 1989, dated 1991) come the findings set out here.

Where two headings read alike, the source gives them in different places.

The target of assay [1] is Pneumocystis carinii DHFR (Pneumocystis carinii, UniProt P16184). Briefly: biochemical.
The target in a further assay is T1, recombinant human DHFR (Homo sapiens, UniProt P00374).
T1 sequence (P00374 1-187): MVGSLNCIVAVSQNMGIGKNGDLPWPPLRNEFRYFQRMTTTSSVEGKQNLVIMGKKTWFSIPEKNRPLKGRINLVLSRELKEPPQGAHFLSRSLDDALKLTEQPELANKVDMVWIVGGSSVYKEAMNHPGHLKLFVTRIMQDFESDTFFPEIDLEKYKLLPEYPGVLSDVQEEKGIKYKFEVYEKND
Description: Inhibition of recombinant human DHFR activity by substituted phenyl triazines at 25 µM DHF. The format is biochemical.

Another assay addresses P. carinii DHFR (Pneumocystis carinii, UniProt P16184). Briefly: biochemical.
Where [2] appears, read: ratio of human DHFR Ki to P. carinii DHFR Ki.

Pneumocystis carinii DHFR, sequence (P16184 whole entry): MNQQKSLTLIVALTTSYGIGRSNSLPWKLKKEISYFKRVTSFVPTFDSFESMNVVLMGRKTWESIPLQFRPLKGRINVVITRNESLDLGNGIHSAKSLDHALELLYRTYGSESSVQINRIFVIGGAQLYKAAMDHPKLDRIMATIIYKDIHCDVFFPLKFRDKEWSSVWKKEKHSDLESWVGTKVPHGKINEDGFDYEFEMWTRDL
P. carinii DHFR, sequence (P16184 whole entry): as above

Turning to `CC1(C)N=C(N)N=C(N)N1c1cccc(CNc2cc(C(N)=O)cc(C(N)=O)c2)c1` [3-CH2NHϕ, 3',5'(CONH2)2], in assay [1], the IC50 was found to be 1.07 µM and the “Selectivity, Ki (human)/Ki(Pc)” value was 4.5. In addition, the IC50 at recombinant human DHFR is 2.8 µM.
In the case of `CC1(C)N=C(N)N=C(N)N1c1cccc(CNc2ccc(C#N)cc2)c1` [3-CH2NHϕ, 4'CN], the figures for the IC50 (in assay [1]; on recombinant human DHFR) were 0.6 µM and 0.52 µM, respectively. Further, the “Selectivity, Ki (human)/Ki(Pc)” value in assay [1] (setting [2]) is on record as 1.5.
For `CC1(C)N=C(N)N=C(N)N1c1cccc(COc2ccc(Cl)c(Cl)c2Cl)c1` [3-CH2Oϕ, 2',3',4'Cl3], the IC50 stood at 0.56 µM in assay [1] and 0.81 µM on recombinant human DHFR. Besides, the “Selectivity, Ki (human)/Ki(Pc)” value in assay [1] (setting [2]) worked out at 2.5.
The corresponding values for `CC1(C)N=C(N)N=C(N)N1c1cccc(COc2cccc(CO)c2)c1` [3-CH2Oϕ, 3'CH2OH] are 1.8 µM, 0.97 µM and 0.9.
`CC(=O)Nc1cccc(OCc2cccc(N3C(N)=NC(N)=NC3(C)C)c2)c1` [3-CH2Oϕ, 3'NHAc] yielded an IC50 in assay [1] of 0.23 µM.
With `COc1cccc(OCc2cccc(N3C(N)=NC(N)=NC3(C)C)c2)c1` [3-CH2Oϕ, 3'OCH3], the figures for the IC50 (in assay [1]; at recombinant human DHFR) were 0.55 µM and 0.36 µM, respectively. Besides, the “Selectivity, Ki (human)/Ki(Pc)” value in assay [1] (setting [2]) was found to be 1.1.
Consider `CC1(C)N=C(N)N=C(N)N1c1cccc(COc2cccc3ccccc23)c1` [3-CH20(a)Naphthyl], for which, in assay [1], the IC50 was found to be 0.36 µM and the “Selectivity, Ki (human)/Ki(Pc)” value is 2.6. Moreover, the IC50 on recombinant human DHFR worked out at 0.56 µM.
Turning to `Cc1cccc(OCc2cccc(N3C(N)=NC(N)=NC3(C)C)c2)c1` [3-CH20ϕ, 3'CH3], the figures for the IC50 (in assay [1]; on recombinant human DHFR) were 1.4 µM and 0.65 µM, respectively. In addition, in assay [1] (setting [2]), the “Selectivity, Ki (human)/Ki(Pc)” value was 0.8.
As for `CC1(C)N=C(N)N=C(N)N1c1cccc(COc2cccc(Cl)c2)c1` [3-CH20ϕ, 3'Cl], the IC50 is 0.85 µM in assay [1] and 0.47 µM on recombinant human DHFR. For the same molecule, in assay [1] (setting [2]), the “Selectivity, Ki (human)/Ki(Pc)” value is given as 0.9.
The corresponding values for `CCCCCCOc1cccc(N2C(N)=NC(N)=NC2(C)C)c1` [3-O(CH2)5CH3] are 1.52 µM, 6.4 µM and 7.2.
As to `CCCCCCCCCCCOc1cccc(N2C(N)=NC(N)=NC2(C)C)c1` [3-O(CH2)10CH3], the IC50 in assay [1] turned out to be 1.33 µM; at recombinant human DHFR, 8.8 µM. In addition, in assay [1] (setting [2]), the “Selectivity, Ki (human)/Ki(Pc)” value amounted to 11.3.
For `CCCCCCCCCCCCCCOc1cccc(N2C(N)=NC(N)=NC2(C)C)c1` [3-O(CH2)13CH3], the IC50 in assay [1] turned out to be 23.6 µM; on recombinant human DHFR, 31.6 µM. The “Selectivity, Ki (human)/Ki(Pc)” value in assay [1] (setting [2]) came out at 2.3.
Regarding `CC1(C)N=C(N)N=C(N)N1c1cccc(OCCOc2cccc(C(F)(F)F)c2)c1` [3-O(CH2)20ϕ, 3'CF3], the IC50 in assay [1] turned out to be 1.6 µM.
By Ki is commonly meant a measure of affinity in units of concentration, obtained from inhibition or displacement. Regarding `CC1(C)N=C(N)N=C(N)N1c1ccc(C(F)(F)F)cc1` [-CF3], the IC50 at P. carinii DHFR (100 µM NADPH, 100 µM DHF, 1 nM P. carinii DHFR, 25 C, read-out: IC5O (100 µM DHF)) worked out at 25 µM. Also, the Ki on P. carinii DHFR (read-out: Ki) turned out to be 0.0875 µM.
On P. carinii DHFR, `Cc1ccc(N2C(N)=NC(N)=NC2(C)C)cc1` [-CH3] returned an IC50 of 30 µM and a Ki of 0.105 µM.
As to `CC1(C)N=C(N)N=C(N)N1c1ccc([N+](=O)[O-])cc1` [-NO2], on P. carinii DHFR, the IC50 is > 8330 µM and the Ki was > 2.9 µM.
The corresponding values for `COc1ccc(N2C(N)=NC(N)=NC2(C)C)cc1` [-OCH3] are 90 µM and 0.315 µM.
In the case of `CC1(C)N=C(N)N=C(N)N1c1ccc(O)cc1` [-OH], on P. carinii DHFR, the IC50 worked out at 250 µM and affinity was put at a Ki of 0.875 µM.
With `CCOC(=O)c1cccc(N2C(N)=NC(N)=NC2(C)C)c1` [Substituent 3-CO2Et], the IC50 turned out to be 166 µM in assay [1] and 114 µM at recombinant human DHFR. In addition, the “Selectivity, Ki (human)/Ki(Pc)” value in assay [1] (setting [2]) was 1.2.
Regarding `CC(=O)c1cccc(N2C(N)=NC(N)=NC2(C)C)c1` [Substituent 3-COCH3], the IC50 at recombinant human DHFR worked out at 21 µM.
For the molecule `CC1(C)N=C(N)N=C(N)N1c1cccc([N+](=O)[O-])c1` [Substituent 3-NO2], the IC50 in assay [1] is 9.5 µM; on recombinant human DHFR, 2.76 µM. The “Selectivity, Ki (human)/Ki(Pc)” value in assay [1] (setting [2]) is 0.7.
`CC1(C)N=C(N)N=C(N)N1c1cccc(OCc2ccccc2)c1` [Substituent 3-OCH2ϕ] showed an IC50 in assay [1] of 4.6 µM.
In the case of `CCOc1cccc(N2C(N)=NC(N)=NC2(C)C)c1` [Substituent 3-OEt], the IC50 at recombinant human DHFR stood at 13.8 µM.
For `CC1(C)N=C(N)N=C(N)N1c1ccc(Cl)cc1` [Substituent 4-Cl, 4,6-diamino-1-(p-chlorophenyl)1,2-dihydro-2,2-dimethyl-s-triazine, reference compound], the IC50 on P. carinii DHFR was 20 µM; in assay [1], 7.5 µM. Besides, the Ki on P. carinii DHFR amounted to 0.07 µM; in assay [1] it was 0.109 µM. Further, at recombinant human DHFR (human DHFR versus P. carinii DHFR), the “times more tightly bound to human DHFR than to P. carinii DHFR” value is on record as ~2.5 times.
